Test results taken from US10597388B2, “Pyridazinone herbicides” (FMC CORPORATION, priority 2014, dated 2020).

Experiments:
Format in all cases: in vivo
kochia (Kochia scoparia) = experiment: Test C greenhouse herbicide test, postemergence
In short: (§1)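 Seedlings are raised in pots of peat moss–vermiculite medium with starter nutrients, then receive postemergence test chemical at the 1- to 4-leaf stage. They are kept in the greenhouse 13 to 15 d and scored visually versus controls, 0 meaning no effect and 100 complete control.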

[1] = test system: oat, wild (wild oat, Avena fatua); experiment: Test C greenhouse herbicide test, postemergence
In short: as §1

[2] = test system: morningglory (Ipomoea coccinea); experiment: Test C greenhouse herbicide test, pre- and postemergence
In short: (§2)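 Percent-control ratings (0 none, 100 complete) came from visual comparison with controls held alongside in the greenhouse for 13–15 d. Treatments covered soil application at sowing and foliar application to young plants 2–18 cm tall.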

corn (Zea mays) = experiment: as above
In short: as §2

[3] = test system: ragweed (common ragweed, Ambrosia elatior); experiment: as above
In short: as §2

[4] = test system: crabgrass, large (large crabgrass, Digitaria sanguinalis); experiment: as above
In short: as §2

[5] = test system: johnsongrass (Sorghum halepense); experiment: as above
In short: as §2

[6] = test system: barnyardgrass (Echinochloa crus-galli); experiment: as above
In short: as §2

[7] = test system: blackgrass (Alopecurus myosuroides); experiment: as above
In short: as §2

[8] = test system: pigweed (Amaranthus retroflexus); experiment: as above
In short: as §2

[9] = test system: wheat (winter wheat, Triticum aestivum); experiment: as above
In short: as §2

[10] = test system: ryegrass, Italian (Italian ryegrass, Lolium multiflorum); experiment: as above
In short: as §2

[11] = test system: foxtail, giant (giant foxtail, Setaria faberii); experiment: as above
In short: as §2

[12] = test system: lambsquarters (Chenopodium album); experiment: as above
In short: as §2

soybean (Glycine max) = experiment: as above
In short: as §2

[13] = test system: waterhemp (common waterhemp, Amaranthus rudis); experiment: as above
In short: as §2

[14] = Postemergence, 31 g ai/ha, scale 0 to 100 (0 no effect, 100 complete control)
[15] = Postemergence, 62 g ai/ha, 0 to 100 scale (0 no effect, 100 complete control)
[16] = Postemergence, 250 g ai/ha, scale 0 to 100, 0 no effect, 100 complete control, 13 to 15 d
[17] = postemergence, 125 g ai/ha, scale 0 to 100, 0 no effect, 100 complete control
[18] = Preemergence, 31 g ai/ha, scale 0 to 100, 0 is no effect, 100 is complete control
[19] = Preemergence, 62 g ai/ha, scale 0 to 100, 0 is no effect, 100 is complete control
[20] = Preemergence, 125 g ai/ha, scale 0 to 100, 0 is no effect, 100 is complete control
[21] = Preemergence, 250 g ai/ha, scale 0 to 100 (0 no effect, 100 complete control)

SMILES: COC(=O)Oc1c(Br)nn(C)c(=O)c1-c1c(C)ccc2ccccc12 [Compound 137]
- Plant response rating, Kochia (kochia (Kochia scoparia); [14]): 100
- Kochia plant response rating (kochia (Kochia scoparia); [15]): 100
- Plant response rating, Kochia (kochia (Kochia scoparia); [16]): 100
- Kochia plant response rating (kochia (Kochia scoparia); [17]): 100
- Plant response rating, Oat, Wild [1, 14]: 70
- Oat, Wild plant response rating [1, 15]: 70
- Plant response rating, Oat, Wild [1, 16]: 90
- Oat, Wild plant response rating [1, 17]: 90
- Plant response rating, Morningglory [2, 14]: 100
- Morningglory plant response rating [2, 15]: 98
- Plant response rating, Morningglory [2, 16]: 100
- Plant response rating, Morningglory [2, 18]: 70
- Plant response rating, Morningglory [2, 19]: 85
- Plant response rating, Morningglory [2, 20]: 90
- Morningglory plant response rating [2, 21]: 98
- Morningglory plant response rating [2, 17]: 100
- Plant response rating, Corn (corn (Zea mays); [14]): 5
- Corn plant response rating (corn (Zea mays); [15]): 15
- Plant response rating, Corn (corn (Zea mays); [16]): 20
- Plant response rating, Corn (corn (Zea mays); [18]): 0
- Plant response rating, Corn (corn (Zea mays); [19]): 10
- Plant response rating, Corn (corn (Zea mays); [20]): 10
- Corn plant response rating (corn (Zea mays); [21]): 55
- Corn plant response rating (corn (Zea mays); [17]): 10
- Plant response rating, Ragweed [3, 14]: 10
- Ragweed plant response rating [3, 15]: 20
- Plant response rating, Ragweed [3, 16]: 40
- Plant response rating, Ragweed [3, 18]: 80
- Plant response rating, Ragweed [3, 19]: 95
- Plant response rating, Ragweed [3, 20]: 95
- Ragweed plant response rating [3, 21]: 100
- Ragweed plant response rating [3, 17]: 30
- Plant response rating, Crabgrass, Large [4, 14]: 30
- Crabgrass, Large plant response rating [4, 15]: 30
- Plant response rating, Crabgrass, Large [4, 16]: 35
- Plant response rating, Crabgrass, Large [4, 18]: 20
- Plant response rating, Crabgrass, Large [4, 19]: 20
- Plant response rating, Crabgrass, Large [4, 20]: 70
- Crabgrass, Large plant response rating [4, 21]: 80
- Crabgrass, Large plant response rating [4, 17]: 35
- Plant response rating, Johnsongrass [5, 14]: 10
- Johnsongrass plant response rating [5, 15]: 10
- Plant response rating, Johnsongrass [5, 16]: 15
- Plant response rating, Johnsongrass [5, 18]: 0
- Plant response rating, Johnsongrass [5, 19]: 5
- Plant response rating, Johnsongrass [5, 20]: 20
- Johnsongrass plant response rating [5, 21]: 20
- Johnsongrass plant response rating [5, 17]: 15
- Plant response rating, Barnyardgrass [6, 14]: 25
- Barnyardgrass plant response rating [6, 15]: 40
- Plant response rating, Barnyardgrass ([6]; Postemergence, 125 g ai/ha, scale 0 to 100, 0 is no effect, 100 is complete control): 50
- Plant response rating, Barnyardgrass [6, 16]: 65
- Plant response rating, Barnyardgrass [6, 18]: 35
- Plant response rating, Barnyardgrass [6, 19]: 85
- Plant response rating, Barnyardgrass [6, 20]: 90
- Barnyardgrass plant response rating [6, 21]: 100
- Plant response rating, Blackgrass [7, 14]: 0
- Blackgrass plant response rating [7, 15]: 0
- Plant response rating, Blackgrass [7, 16]: 0
- Plant response rating, Blackgrass [7, 18]: 30
- Plant response rating, Blackgrass [7, 19]: 40
- Plant response rating, Blackgrass [7, 20]: 30
- Blackgrass plant response rating [7, 21]: 90
- Blackgrass plant response rating [7, 17]: 0
- Plant response rating, Pigweed [8, 14]: 90
- Pigweed plant response rating [8, 15]: 98
- Plant response rating, Pigweed [8, 16]: 100
- Plant response rating, Pigweed [8, 18]: 100
- Plant response rating, Pigweed [8, 19]: 100
- Plant response rating, Pigweed [8, 20]: 100
- Pigweed plant response rating [8, 21]: 100
- Pigweed plant response rating [8, 17]: 98
- Plant response rating, Wheat [9, 14]: 75
- Wheat plant response rating [9, 15]: 90
- Plant response rating, Wheat [9, 16]: 95
- Plant response rating, Wheat [9, 18]: 15
- Plant response rating, Wheat [9, 19]: 80
- Plant response rating, Wheat [9, 20]: 90
- Wheat plant response rating [9, 21]: 90
- Wheat plant response rating [9, 17]: 90
- Plant response rating, Ryegrass, Italian [10, 14]: 10
- Ryegrass, Italian plant response rating [10, 15]: 30
- Plant response rating, Ryegrass, Italian [10, 16]: 60
- Plant response rating, Ryegrass, Italian [10, 18]: 85
- Plant response rating, Ryegrass, Italian [10, 19]: 95
- Plant response rating, Ryegrass, Italian [10, 20]: 100
- Ryegrass, Italian plant response rating [10, 21]: 100
- Ryegrass, Italian plant response rating [10, 17]: 30
- Plant response rating, Foxtail, Giant [11, 14]: 45
- Foxtail, Giant plant response rating [11, 15]: 60
- Plant response rating, Foxtail, Giant [11, 16]: 95
- Plant response rating, Foxtail, Giant [11, 18]: 65
- Plant response rating, Foxtail, Giant [11, 19]: 85
- Plant response rating, Foxtail, Giant [11, 20]: 95
- Foxtail, Giant plant response rating [11, 21]: 100
- Foxtail, Giant plant response rating [11, 17]: 80
- Plant response rating, Lambsquarters [12, 14]: 90
- Lambsquarters plant response rating [12, 15]: 90
- Plant response rating, Lambsquarters [12, 16]: 100
- Plant response rating, Lambsquarters [12, 18]: 90
- Plant response rating, Lambsquarters [12, 19]: 100
- Plant response rating, Lambsquarters [12, 20]: 100
- Lambsquarters plant response rating [12, 21]: 95
- Lambsquarters plant response rating [12, 17]: 98
- Plant response rating, Soybean (soybean (Glycine max); [14]): 10
- Soybean plant response rating (soybean (Glycine max); [15]): 10
- Plant response rating, Soybean (soybean (Glycine max); [16]): 20
- Plant response rating, Soybean (soybean (Glycine max); [18]): 30
- Plant response rating, Soybean (soybean (Glycine max); [19]): 20
- Plant response rating, Soybean (soybean (Glycine max); [20]): 40
- Soybean plant response rating (soybean (Glycine max); [21]): 30
- Soybean plant response rating (soybean (Glycine max); [17]): 15
- Plant response rating, Waterhemp [13, 14]: 85
- Waterhemp plant response rating [13, 15]: 65
- Plant response rating, Waterhemp [13, 16]: 90
- Plant response rating, Waterhemp [13, 18]: 85
- Plant response rating, Waterhemp [13, 19]: 98
- Plant response rating, Waterhemp [13, 20]: 95
- Waterhemp plant response rating [13, 21]: 98
- Waterhemp plant response rating [13, 17]: 85
